Laboratory results reported in patent US20240018146A1, “COMPOSITIONS AND METHODS OF USING THE SAME FOR TREATMENT OF NEURODEGENERATIVE AND MITOCHONDRIAL DISEASE” (MITOKININ, INC., priority 2020, published 2024).
Like-named read-outs stand apart in the source and are kept apart here.

How the values were obtained:
Type in all cases: cell-based
HeLa MKYP cells [1] = test: Human mitophagy assay (HeLa mKeima assay, FACS); conditions: read-out: Mitophagy induction EC50
Summary of the method: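 HeLa cells carrying the pH-sensitive mtKeima tag incubated 16 h with compound at several concentrations, then 1 uM FCCP/oligomycin for 6 h. FACS detects mitochondria in lysosomes through the Keima emission shift, quantified as percentage of cells in mitophagy.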

HeLa MKYP cells [2] = test: Cell death measured by DAPI staining, with 1 μM FCCP/oligomycin or no toxin (no FO)
Summary of the method: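 HeLa MKYP cells were treated with compounds alongside 1 μM FCCP/oligomycin or no toxin for 6 or 6.5 h. Cell death was scored by DAPI staining, with H2O2 treatment as the death control.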

[3] = Mitotoxicity / Mitotox safety margin (therapeutic window)

Row | SMILES | EC50 (HeLa MKYP cells [1]; Homo sapiens, HeLa) [nM] | Highest safe dose (cytotoxicity; no FO; safe means DAPI+ <20%) (HeLa MKYP cells [2]) [µM] | Max % death with 1 μM FO (HeLa MKYP cells [2]) [%] | Mito-Safety Index (highest safe dose/EC50) [3] | Highest safe dose (μM) (mitotox or cytotox) [3] [µM] | EC50 (HeLa MKYP cells [1]) [nM] | mitotoxicity ([3]; FIG. 5-7)
1 | C[C@@H]1CN([C@@H]2COc3ccccc3[C@H]2Nc2ncnc3[nH]c(C4CC4)cc23)CCO1 [EP-0040958] | 60 | 25.0 | 14.1 | 29.33 | 1.7 | – | –
2 | [2H]C([2H])([2H])OC1CN([C@H]2COc3ccccc3[C@@H]2Nc2ncnc3[nH]c(C(F)(F)F)cc23)C1 (single isomer, unassigned) [EP-0041326] | – | 25.0 | 7.5 | 56.49 | 19.8 | 350 | –
3 | c1ccc2c(c1)CC[C@H](N1C[C@@H]3COC[C@H]3C1)[C@H]2Nc1ncnc2[nH]c(C3CC3)cc12 [EP-0040768] | 50 | 25.0 | 33.1 | 57.75 | 3.0 | – | –
4 | FC(F)(F)c1cc2c(NC3c4ccccc4OCC3N3C[C@@H]4COC[C@H]4C3)ncnc2[nH]1 (some centres unmarked) [EP-0040677] | 320 | 25.0 | 11.1 | 77.08 | 25.0 | – | –
5 | C[C@@H]1CN([C@@H]2COc3cc(F)ccc3[C@H]2Nc2ncnc3[nH]c(C(F)(F)F)cc23)C[C@H](C)O1 [EP-0040947] | 20 | 25.0 | 16.6 | 98.61 | 2.2 | – | –
6 | FC(F)(F)c1cc2c(N[C@H]3c4ccccc4CC[C@@H]3C3CCOCC3)ncnc2[nH]1 (single isomer, unassigned) [EP-0040580] | 80 | 25.0 | 17.1 | 68.72 | 5.5 | – | –
7 | COC1CN([C@H]2CCc3ccccc3[C@@H]2Nc2ncnc3[nH]c(C(F)(F)F)cc23)C1 [EP-0040688] | 310 | 8.3 | 82.1 | 26.96 | 8.3 | – | –
8 | Fc1ccc2c(c1)CC[C@H](N1C[C@H]3COC[C@@H]3C1)[C@H]2Nc1ncnc2[nH]c(C(F)(F)F)cc12 [EP-0040695] | 100 | 25.0 | 20.7 | 89.34 | 9.1 | – | –
9 | c1ccc2c(c1)OC[C@H](C1CCOCC1)[C@@H]2Nc1ncnc2[nH]c(C3CC3)cc12 [EP-0040731] | > 25000 | 25.0 | 2.7 | – | – | – | –
10 | C[C@@H]1CN([C@H]2COc3cc(F)ccc3[C@@H]2Nc2ncnc3[nH]c(C(F)(F)F)cc23)CCO1 [EP-0041087] | 9380 | 25.0 | 5.1 | – | – | – | –
11 | C[C@@]12COC[C@]1(C)CN(C1COc3ccccc3C1Nc1ncnc3[nH]c(C(F)(F)F)cc13)C2 (some centres unmarked) [EP-0040524] | 2680 | 25.0 | 27.7 | – | – | – | –
12 | Fc1ccc2c(c1)OC[C@H](N1CCOCC1)[C@H]2Nc1ncnc2[nH]c(C3CC3)cc12 [EP-0040500] | 990 | 25.0 | 8.6 | – | – | – | –
13 | FC(F)(F)c1cc2c(N[C@H]3c4ccccc4CC[C@H]3C3CCOCC3)ncnc2[nH]1 [EP-0040557] | > 25000 | 25.0 | 2.7 | – | – | – | –
14 | CC(=O)N1CCN(C2COc3ccccc3C2Nc2ncnc3[nH]c(C4CC4)cc23)CC1 (racemic) [EP-0041596] | 2720 | 25.0 | 15.3 | – | – | – | –
15 | C[C@H]1CN([C@H]2COc3cc(F)ccc3[C@@H]2Nc2ncnc3[nH]c(C4CC4)cc23)CCO1 [EP-0041124] | 5320 | 25.0 | 12.7 | – | – | – | –
16 | c1ccc2c(c1)OCC(N1CC3CCOC3C1)C2Nc1ncnc2[nH]c(C3CC3)cc12 (single isomer, unassigned) [EP-0041669] | – | 25.0 | 2.5 | – | – | > 25000 | –
17 | C[C@@H]1CN([C@@H]2CCc3ccccc3[C@H]2Nc2ncnc3[nH]c(C(F)(F)F)cc23)C[C@H](C)O1 (single isomer, unassigned) [EP-0040494] | > 25000 | 25.0 | 4.1 | – | – | – | –

Row | SMILES | EC50 (HeLa MKYP cells [1]; Homo sapiens, HeLa) [nM] | Highest safe dose (cytotoxicity; no FO; safe means DAPI+ <20%) (HeLa MKYP cells [2]) [µM] | Max % death with 1 μM FO (HeLa MKYP cells [2]) [%] | Mito-Safety Index (highest safe dose/EC50) [3] | Highest safe dose (μM) (mitotox or cytotox) [3] [µM] | EC50 (HeLa MKYP cells [1]) [nM] | mitotoxicity ([3]; FIG. 5-7)
18 | C[S@](=N)(=O)C1CN([C@H]2COc3ccccc3[C@@H]2Nc2ncnc3[nH]c(C(F)(F)F)cc23)C1 (single isomer, unassigned) [EP-0041495] | – | 25.0 | 2.9 | – | – | 2520 | –
19 | C[C@H]1CN([C@@H]2COc3cc(F)ccc3[C@H]2Nc2ncnc3[nH]c(C(F)(F)F)cc23)CCO1 [EP-0040982] | 7620 | 25.0 | 6.1 | – | – | – | –
20 | Fc1ccc2c(c1)OC[C@@H](N1CCOCC1)[C@@H]2Nc1ncnc2[nH]c(C3CC3)cc12 (single isomer, unassigned) [EP-0040501] | 14300 | 25.0 | 5.0 | – | – | – | –
21 | Oc1ccc2c(c1)CCC[C@H]2Nc1ncnc2[nH]c(C(F)(F)F)cc12 (single isomer, unassigned) [EP-0038508] | – | – | – | – | – | – | low mitotoxicity
22 | FC(F)(F)c1cc2c(N[C@@H]3c4ccccc4OC[C@H]3N3CCOCC3)ncnc2[nH]1 [EP-0040252] | 1110 | 25.0 | 9.1 | – | – | – | –
23 | COC[C@@H]1CCN([C@H]2COc3ccccc3[C@@H]2Nc2ncnc3[nH]c(C(F)(F)F)cc23)C1 (single isomer, unassigned) [EP-0041072] | – | 25.0 | 8.0 | – | – | > 25000 | –
24 | c1ccc2c(c1)CC[C@@H](C1CCOCC1)[C@H]2Nc1ncnc2[nH]c(C3CC3)cc12 [EP-0040626] | 7110 | 25.0 | 29.3 | – | – | – | –
25 | C[S@@](=N)(=O)C1CN(C2COc3ccccc3C2Nc2ncnc3[nH]c(C(F)(F)F)cc23)C1 (single isomer, unassigned) [EP-0041498] | > 25000 | 25.0 | 3.7 | – | – | – | –
26 | C[C@H]1COCCN1[C@@H]1CCc2ccccc2[C@H]1Nc1ncnc2[nH]c(C(F)(F)F)cc12 (single isomer, unassigned) [EP-0040182] | – | 25.0 | 26.8 | – | – | 21200 | –
27 | Fc1ccc2c(c1)CC[C@H](N1C[C@H]3COC[C@H]3C1)[C@H]2Nc1ncnc2[nH]c(C(F)(F)F)cc12 (single isomer, unassigned) [EP-0040720] | 6250 | 25.0 | 12.1 | – | – | – | –
28 | Fc1cccc2c1CC[C@H](N1C[C@H]3COC[C@H]3C1)[C@H]2Nc1ncnc2[nH]c(C3CC3)cc12 (single isomer, unassigned) [EP-0040576] | 2790 | 25.0 | 21.2 | – | – | – | –
29 | C[C@@H]1CN([C@H]2COc3ccccc3[C@@H]2Nc2ncnc3[nH]c(C4CC4)cc23)CCO1 [EP-0040957] | 22800 | 25.0 | 3.8 | – | – | – | –
30 | FC(F)(F)c1cc2c(N[C@@H]3c4ccccc4OC[C@H]3C3CCCOC3)ncnc2[nH]1 (some centres unmarked) [EP-0041003] | > 25000 | 25.0 | 5.3 | – | – | – | –
31 | C[C@@H]1COCCN1[C@@H]1CCc2ccccc2[C@H]1Nc1ncnc2[nH]c(C(F)(F)F)cc12 (single isomer, unassigned) [EP-0040197] | – | 25.0 | 8.4 | – | – | 22600 | –
32 | c1ccc2c(c1)OC[C@H](N1C[C@H]3COC[C@H]3C1)[C@H]2Nc1ncnc2[nH]c(C3CC3)cc12 (single isomer, unassigned) [EP-0040391] | > 25000 | 25.0 | 3.9 | – | – | – | –
33 | COC[C@H]1CCN([C@H]2COc3ccccc3[C@@H]2Nc2ncnc3[nH]c(C4CC4)cc23)C1 [EP-0041547] | – | 25.0 | 8.2 | – | – | 7290 | –
34 | FC(F)OC1CN([C@H]2COc3ccccc3[C@@H]2Nc2ncnc3[nH]c(C(F)(F)F)cc23)C1 (racemic) [EP-0041354] | – | 25.0 | 12.4 | – | – | 1080 | –
